Experimental data as given in US20190211317A1, “PEPTIDES AND NANOPARTICLES FOR INTRACELLULAR DELIVERY OF GENOME-EDITING MOLECULES” (Aadigen, LLC, priority 2016, published 2019).
“And” between values parts separate entries of the source, which are not always exact repeats. Identical values can stand only once. Like-named read-outs stand apart in the source and are kept apart here.

Legend:
[1] = test system: hPD1 gene in human T cells; experiment: hPD1 gene editing in primary human T cells (T7E1 assay); format: cell-based
Protocol: T cells were isolated from PBMCs (2 different donors) using anti-CD3/anti-CD28 antibodies bound to paramagnetic beads (Dynabeads ClinExVivo CD3/CD28, Invitrogen) at a ratio of 3:1 (beads:cells). The cells and beads were co-incubated for 2 hours at room temperature and CD3′ cell enrichment was performed using Dynal ClinExVIVO MPC magnet (Thermo Fisher). The anti-CD3/anti-CD28 paramagnetic beads were removed, washed and concentrated. Cells in the CD3′ fraction were resuspended in activation media at a concentration of 1×10^6 cells/ml with AIM-V medium (Thermo Fishers) supplemented with 10% fetal calf serum, 300 IU/ml IL2 and 50 ng/ml OKT3 (MuromonAB-CD3) for two days.
Cells were transfected by electroporation with CD-19 plasmid or gRNA/CAS9 (5 μg/10 μg) using a Nucleofector 2b (Lonza, Germany) with the Amaxa Human T cells Nucleofector Kit, VPA-1002 (Lonza, Germany). 5×10^6 cells were washed twice with DPBS by centrifuging at 800 rpm for 5 minutes and resuspended in 100 ^l transfection buffer, and then transferred into the electroporation cuvette. An optimized program selected for both high transfection and high efficiency on T cells was used. After electroporation, cells were resuspended in 500 ^l pre-warmed AIM-V medium containing 10% FBS and incubated at 37° C. in 5% CO2. The transfection efficiency was evaluated after 48 hr by flow cytometry or T7E1 assay.
As control, CAS9 loaded with gRNA targeting GFP was used.
Cells were returned to the incubator for 72 hours. CAS9-induced double-strand break followed by repair through non-homologous end joining (NHEJ) was analyzed by either the T7E1 assay or using the Genome Cleavage Detection kit (GCD Thermo Fisher) and quantified using Fragment Analyzer System. The indel frequency in the target gene was quantified using the T7E1 assay. The cultures were expanded and analyzed for viability and PD1 levels every 10 days. T cell expansion medium contained AIM V medium, supplemented with 5% heat-inactivated human AB Serum, 1% Gluta-Max, and 300 IU/mL IL-2.

[2] = test system: EGFP reporter gene in EGFP-U2OS cells
Protocol: ADGN-100 was evaluated for cellular delivery of a plasmid encoding CAS9 and gRNA targeting a specific site in the exogenous EGFP gene reporter in U2OS cells (EGFP-U2OS).
Stock solutions of amphipathic peptides were prepared at 1 mg/mL in distilled water and sonicated for 10 min.
EGFP-U2OS cells containing a single integrated EGFP reporter gene were cultured in Dulbecco's Modified Eagle's Medium (DMEM), supplemented with 2 mM glutamine, 1% antibiotics (streptomycin 10,000 μg/mL, penicillin, 10,000 IU/mL) and 10% (w/v) foetal calf serum (FCS), at 37° C. in a humidified atmosphere containing 5% CO2. A total of 150,000 cells seeded in a 35 mm dish the day prior to transfection were grown to 50-60% confluence and overlaid with 200 μl of preformed complexes, incubated for 3-5 min, then 400 μl of DMEM was added. After 30 min incubation at 37° C., 1 mL of fresh DMEM containing 16% FCS was added to reach a final FCS concentration of 10%, without removing the overlay of CPP/CAS9-gRNA complexes. Cells were returned to the incubator for 72 hours.
CAS9-induced double-strand break formation was analyzed using flow cytometry by monitoring the level of EGFP expression. […] Lipofectamine 2000 delivery was used as positive control.

JURKAT and K562 cells = experiment: Toxicity of CPP/CAS9/gRNA complexes in T cell lines (MTT assay); format: cell-based, human; settings: up to 100 nM, 24 h
Protocol: A total of 30,000 JURKAT or K562 cells seeded in 24-well plates the day prior to transfection were incubated with increasing concentrations of CPP/CAS9/gRNA complexed at 20:1 molar ratio (CPP to CAS9/gRNA) ranging from 1 nM to 200 nM for 30 min prior to addition of medium to reach a final 10% concentration of FCS. Cytotoxic response was measured 24 hours later by colorimetric MTT assay (Sigma, Germany). For MTT assay, cell culture medium was removed and replaced with PBS containing 2.5 mg/ml of MTT for 4 hours. Results correspond to the average of 3 independent experiments.

[3] = CPP/CAS9 and CPP/CAS9:gRNA particle size, polydispersity, zeta potential (Zetasizer 4); format: physicochemical
Protocol: The CPP/CAS9 and CPP/CAS9/sgRNA particles were further characterized; the mean size, polydispersity and zeta potential were measured with Zetasizer 4 apparatus (Malvern Ltd). […] The mean size and the polydispersity of the CCP/CAS9 and CCP/CAS9:gRNA complexes were determined at 25° C. for 3 min per measurement and zeta potential was measured with Zetasizer 4 apparatus (Malvern Ltd).

[4] = test system: endogenous EMX1, AAVS and HPRT genes in Mouse (ESF-158) embryonic stem cells; experiment: Delivery of multiple RGEN:gRNA complexes: EMX1, AAVS, HPRT editing in mouse ES cells (T7E1); format: cell-based
Protocol: (§1) RNAiMAX delivery method was used as a positive control.
(§2) U2OS cells were treated as described previously. H9 embryonic stem cells were cultured in Dulbecco's modified Eagle's medium with 4 mM L-glutamine adjusted to contain 1.5 g/L sodium bicarbonate and 4.5 g/L glucose and supplemented with 0.1 mM 2-mercaptoethanol, 85%; and 15% ES-Cell Qualified fetal bovine serum. […] CAS9-induced double-strand break formation followed by repair through NHEJ was analyzed 72 hr after transfection by T7E1 assay and quantified using Fragment Analyzer System. The deletion (indel) frequencies in EMX1, AAVS and HPRT genes were quantified using T7E1 assay. Data for on-target mutations induced by RGEN:gRNA are reported as an average of 3 separate experiments.

[5] = test system: endogenous EMX1, AAVS and HPRT genes in U2OS and Human (H9) embryonic stem cells; experiment: Delivery of multiple RGEN:gRNA complexes: EMX1, AAVS, HPRT editing in U2OS and H9 ES cells (T7E1); format: cell-based
Protocol: as §1, §2

[6] = test system: Luciferase reporter gene in the liver; settings: free ADGN-100a peptide
Protocol: At 72 hours post injection, animals were sacrificed and the following tissues were collected: liver, lung, kidney, spleen, and blood. Luciferase was quantified by fluorescence in the liver. Tissues were homogenized and CAS9 expression was analyzed by ELISA using Cas9 monoclonal antibody (SBI clone 7A9).

[7] = test system: E-Catenin gene in mouse muscle myoblast cells (C2C12); experiment: ü-Catenin gene disruption in C2C12 myoblasts (PCR gel); format: cell-based; settings: undifferentiated and differentiated C2C12
Protocol: Cells were transfected with CAS9/gRNA (2.5 μM/5 μM) complexes associated with CPP (+) or not (−) at a molar ratio of 20:1 (peptide to complex) and compared to delivery by RNAiMAX for E-Catenin expression. ü-actin expression was included as a loading control.
[…] Delivery by RNAiMAX was included as a positive control.
CAS9-induced NHEJ was analyzed 72 hours after transfection by PCR (FIG. 26) and T7E1 assay (FIG. 27). The deletion (indel) frequencies in the HPRT gene were quantified using a T7E1 assay by quantifying the amount of uncut vs cut DNA using a Fragment Analyzer System. Data for on-target mutations induced by RGEN/gRNA are reported as an average of 3 separate experiments
The cell line was maintained in 5% CO2 at 37° C. and cell viability was assessed by the Trypan Blue exclusion test. To induce myogenic differentiation, at about 80% cell confluence the medium containing 10% fetal calf serum was substituted with medium containing 1% fetal calf serum. The cells were transfected at the undifferentiated stage or at day 7 after differentiation.

primary human T cells = experiment: CAS9 protein expression in primary human T cells after CAS9 mRNA or plasmid delivery (ELISA); format: cell-based; settings: day 3
Protocol: T cells were isolated from PBMCs using anti-CD3/anti-CD28 antibodies bound to paramagnetic beads (Dynabeads ClinExVivo CD3/CD28, Invitrogen) at a ratio of 3:1 (beads:cells). The cells and beads were co-incubated for 2 hours at room temperature and CD3^+ cell enrichment was performed using Dynal ClinExVIVO MPC magnet (Thermo Fisher). The anti-CD3/anti-CD28 paramagnetic beads were removed, washed and concentrated. Cells in the CD3^+ fraction were resuspended in activation media at a concentration of 1×10^6 cells/ml with AIM-V medium (Thermo Fishers) supplemented with 10% fetal calf serum, 300 IU/ml IL2 and 50 ng/ml OKT3 (MuromonAB-CD3) for two days.
CPP/CAS9 complexes were formed by mixing the CAS9 mRNA (0.5 μg) with CPP at a 20:1 molar ratio of CPP:CAS9 mRNA and incubating for 30 min at 37° C. prior to cell transfection. CPP/CAS9-expressing plasmid complexes were formed by mixing the CAS9-expressing plasmid (Addgene MLM3639-Plasmid #42252) (0.5 μg) with CPP at a 20:1 molar ratio of CPP:plasmid and incubating for 30 min at 37° C. prior to cell transfection.
Cells were transfected according to the protocol for suspension cells described in Example 13a. RNAiMAX and lipofectamine 2000 lipid-based delivery methods (Invitrogen Thermo Fisher France) were used as controls, and transfections were performed following the manufacturer's instructions. CAS9 protein expression level was analyzed at multiple time points over a period of 10 days as determine by ELISA on protein extracts using antibodies against CRISPR/Cas9 obtained from Diagenode (Diagenode cat. No. C15200223) and ABCAM (clone 7A9-ab191468).

[8] = test system: endogenous EMX1 gene in U2OS, HEPG2 cells and primary human fibroblasts; experiment: EMX1 editing from CPP delivery of CAS9-expressing plasmid and gRNA (T7E1); format: cell-based; settings: the three cell types
Protocol: EMX1-targeting gRNAs were prepared as described above. CPP/plasmid/gRNA complexes were prepared by mixing 0.5 μg of a CAS9-expressing plasmid (Addgene MLM3639-Plasmid #42252) and 5 μg gRNA with CPP at a 20:1 molar ratio of CPP to nucleic acid (plasmid+gRNA) and incubating for 30 min at 37° C. prior to cell transfection. Suspension and adherent cells were transfected according to the protocols described in Example 13a. Lipofectamine 2000- and RNAiMAX-mediated delivery methods (Invitrogen Thermo Fisher France) were used as controls. EMX1 gene editing was analyzed at day 3 and day 6 by T7E1 assay and quantified using a Fragment Analyzer System.

PCSK9 = experiment: In vivo CAS9 mRNA/gRNA targeting PCSK9: serum PCSK9 (ELISA); set-up: species or system mouse
Protocol: Polyadenylated and capped CAS9 mRNA was obtained from ThermoFisher, and gRNA (5 μg) targeting PCSK9 Exon 1 was obtained from Eurogentec. […] Free CAS9 mRNA/gRNA was injected as a control.
Blood samples were collected by saphenous vein bleeds at multiple time points (day 3, 6, 10, and 21), collecting no more than 100 μl or 10% of total blood volume per week. Serum levels of PCSK9 were determined by ELISA using the Mouse Proprotein Convertase 9/PCSK9 Quantikine ELISA Kit (MPC-900, R&DSystems).

Swiss mice = settings: other tissues examined
Protocol: At 72 hours following injection, animals were sacrificed and tissues including lung, liver, brain, kidney, heart, spleen, blood, and pancreas were collected. Tissues were homogenized and CAS9 expression was analyzed by western blot on protein extract using antibody against CRISPR/Cas9 (Diagenode cat. No. C15200223) or by ELISA using Cas9 monoclonal antibody (SBI clone 7A9).

[9] = test system: EGFP reporter gene in EGFP-U2OS, EGFP-HEK, EGFP-JURKAT cells; experiment: EGFP reporter gene disruption from CPP delivery of CAS9:sgRNA (flow cytometry); format: cell-based, human; settings: for decrease in EGFP expression: CAS9:gRNA 50 nM, CPP:cargo 20:1;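 for all read-outs here: cells carrying one integrated EGFP reporter received peptide-complexed CAS9 preloaded 1:1 with EGFP sgRNA, cultured 72 h, then EGFP level read by flow cytometry, lipofectamine 2000 and RNAiMAX as positive controls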
Protocol: Efficacy of CPP-mediated delivery was quantified using a well-established CAS9-induced gene disruption method (Fu et al, 2013, supra), by targeting a specific site in the exogenous EGFP gene reporter in three human cell lines expressing EGFP (GFP-U2OS, EGFP-HEK, EGFP-JURKAT).
Stock solutions of amphipathic peptides were prepared at 1 mg/mL in distilled water and sonicated for 10 min. CAS9 protein was preloaded with purified EGFP sgRNA at a molar ratio of 1:1 and incubated for 10 min prior to forming complexes with the peptides. Preloaded CAS9/gRNA complexes (10 nM, 25 nM, and 50 nM) were mixed with CPPs at 5:1, 10:1 and 20:1 molar ratios of CPP to cargo and incubated for 30 min at 37° C. prior to cell transfection.
Cell line containing a single integrated EGFP reporter gene (GFP-U2OS, EGFP-HEK and EGFP-JURKAT) were cultured in Dulbecco's Modified Eagle's Medium (DMEM), supplemented with 2 mM glutamine, 1% antibiotics (streptomycin 10,000 μg/mL, penicillin, 10,000 IU/mL) and 10% (w/v) foetal calf serum (FCS) at 37° C. in a humidified atmosphere containing 5% CO2. A total of 150,000 cells seeded in a 35 mm dish the day prior to transfection were grown to 50-60% confluence and overlaid with 200 μl of preformed complexes, incubated for 3-5 min, then 400 μl of DMEM was added. After 30 min incubation at 37° C., 1 mL of fresh DMEM containing 16% FCS was added to reach a final FCS concentration of 10%, without removing the overlay of CPP/CAS9-gRNA complexes. Cells were returned to the incubator for 72 hours.
CAS9-induced double-strand break formation was analyzed using flow cytometry by monitoring level of EGFP expression. […] Both lipofectamine 2000 and RNAiMAX delivery methods were used as positive controls.

[10] = test system: endogenous hPD1 gene in JURKAT and K562 cells; experiment: hPD1 gene editing in T cell lines (T7E1 assay); format: cell-based, human
Protocol: CAS9 protein was preloaded with purified sgRNA at a molar ratio of 1:1 and incubated for 10 min prior to forming complexes with peptides.
5×10^6 cells were washed twice with DPBS by centrifuging at 800 rpm for 5 minutes and resuspended in 100 ^l transfection buffer, and then transferred into the electroporation cuvette. An optimized program selected for both high transfection and high efficiency on T cells was used. After electroporation, cells were resuspended in 500 ^l pre-warmed AIM-V medium containing 10% FBS and incubated at 37° C. in 5% CO2. The transfection efficiency was evaluated after 48 hr by flow cytometry or T7E1 assay.
RNAiMAX delivery method was used as positive control. Cells were either resuspended in or overlaid with 100 μl of preformed complexes, incubated for 3-5 min, and then 300 μl of DMEM was added. […] The indel frequency in the hPD1 gene was quantified using the T7E1 assay.

[11] = test system: endogenous EMX1 gene in primary human T cells; experiment: EMX1 editing in primary human T cells with CAS9 mRNA, protein or plasmid plus gRNA (T7E1); format: cell-based; settings: CAS9-expressing plasmid and gRNA; day 3
Protocol: CPP/CAS9 mRNA/gRNA complexes were formed by mixing the CAS9 mRNA (0.5 μg) and gRNA (5 μg) with CPP at a 20:1 molar ratio of CPP to nucleic acid (mRNA+gRNA) and incubating for 30 min at 37° C. prior to cell transfection. CPP/plasmid/gRNA complexes were formed by mixing CAS9 expressing plasmid (Addgene MLM3639-Plasmid #42252) (0.5 μg) and gRNA (5 μg) with CPP at a 20:1 molar ratio of CPP to nucleic acid (plasmid+gRNA) and incubating for 30 min at 37° C. prior to cell transfection. CPP/CAS9/gRNA complexes were formed by mixing preloaded CAS9/gRNA complexes (2.5 μg/5 μg CAS9/gRNA) with CPP at a 20:1 molar ratio of CPP to complex and incubating for 30 min at 37° C. prior to cell transfection.
T cells were transfected according to the protocol for suspension cells described in Example 13a. Lipofectamine 2000- and RNAiMAX-mediated delivery methods (Invitrogen Thermo Fisher France) were included as controls. EMX1 gene editing was analyzed at day 3, day 6, and day 10 by T7E1 assay and quantified using a Fragment Analyzer System.

CC(C)C[C@H](NC(=O)[C@H](CCCNC(=N)N)NC(=O)[C@H](Cc1c[nH]c2ccccc12)NC(=O)[C@H](CCCNC(=N)N)NC(=O)[C@H](Cc1c[nH]c2ccccc12)NC(=O)CNC(=O)[C@H](C)NC(=O)[C@H](CO)NC(=O)[C@H](CCCNC(=N)N)NC(=O)[C@H](Cc1c[nH]c2ccccc12)NC(=O)[C@H](CCCCN)NC(=O)CCN)C(=O)N[C@@H](Cc1c[nH]c2ccccc12)C(=O)N[C@@H](CCCNC(=N)N)C(=O)N[C@H](C(=O)N[C@@H](CCCNC(=N)N)C(=O)N[C@@H](CO)C(=O)N[C@@H](Cc1c[nH]c2ccccc12)C(=O)N[C@@H](CO)C(=O)N[C@@H](CCCNC(=N)N)C(=O)O)C(C)C [ADGN-100a]
Mean indel Frequency ± s.e.m ([1]; Donor 1, CAS9/sgRNA 2.5 μg/5 μg): 48 ± 6%
Mean indel Frequency ± s.e.m ([1]; Donor 1, CAS9/sgRNA 5 μg/10 μg): 56 ± 4%
Mean indel Frequency ± s.e.m ([1]; Donor 2, CAS9/sgRNA 2.5 μg/5 μg): 52 ± 5%
Mean indel Frequency ± s.e.m ([1]; Donor 2, CAS9/sgRNA 5 μg/10 μg): 61 ± 8%
mean indel frequency of hPD1 gene ([1]; T cells from the two donors, 5 μg/10 μg CAS9/gRNA): 58%
decrease in EGFP expression ([2]; molar ratio 10:1 of ADGN-100a to each nucleic acid): 23%
decrease in EGFP expression ([2]; molar ratio 20:1): 38%
toxicity (JURKAT and K562 cells): no toxicity
PI ([3]; Cas9:gRNA, molar ratio 10/1): 0.27 ± 0.1
Size ([3]; Cas9:gRNA, molar ratio 10/1): 91 ± 5 nm
zeta ([3]; Cas9:gRNA, molar ratio 10/1): 5.3±1.0 MV and 5.3 ± 0.7 MV
PI ([3]; Cas9:gRNA, molar ratio 20/1): 0.28 ± 0.1
Size ([3]; Cas9:gRNA, molar ratio 20/1): 87 ± 6 nm
zeta ([3]; Cas9:gRNA, molar ratio 20/1): 4.8±0.3 MV
Pt ([3]; Cas9, molar ratio 10/1): 0.25 ± 0.1
zeta ([3]; Cas9, molar ratio 10/1): 6.0±0.8 mV
Size ([3]; Cas9, molar ratio 10/1, 0.9% NaCl): 82 ± 5 nm
Pt ([3]; Cas9, molar ratio 20/1): 0.21 ± 0.1
Size ([3]; Cas9, molar ratio 20/1): 78 ± 7 nm
zeta ([3]; Cas9, molar ratio 20/1): 7.2±1 mV
formation of stable nanoparticles ([3]; with CAS9 and CAS9:gRNA complex, molar ratio 10:1 or 20:1): able to form stable nanoparticles
Mean diameter ([3]; with CAS9 and CAS9:gRNA, molar ratio 10:1 or 20:1): ~80 nm
Mean indel Frequency ± S.E.M ([4]; AAVS): 71 ± 5%
Mean indel Frequency ± S.E.M ([4]; EMX1): 75 ± 5%
Mean indel Frequency ± S.E.M ([4]; HPRT): 70 ± 4%
Mean indel Frequency ± S.E.M ([5]; H9, AAVS): 60 ± 5%
Mean indel Frequency ± S.E.M ([5]; H9, EMX1): 61 ± 6%
Mean indel Frequency ± S.E.M ([5]; H9, HPRT): 61 ± 5%
Mean indel Frequency ± S.E.M ([5]; U2OS, AAVS): 72 ± 4%
Mean indel Frequency ± S.E.M ([5]; U2OS, EMX1, 20 nM each complex): 78 ± 7%
Mean indel Frequency ± S.E.M ([5]; U2OS, HPRT): 78 ± 6%
change in luciferase expression [6]: no change in luciferase expression
editing of ü-Catenin and HPRT genes [7]: robust editing
ELISA signal for CAS9 protein expression (primary human T cells; CAS9-expressing plasmid 0.5 μg): about 4 times the background
ELISA signal for CAS9 protein expression (primary human T cells; CAS9 mRNA 0.5 μg): about 15 times the background
mean indel frequencies [8]: 45-50%
decrease of serum levels of PSCK9 (PCSK9; day 1, CAS9 mRNA 5 μg/gRNA 5 μg single i.v.): 51%
decrease of serum levels of PSCK9 (PCSK9; day 3): 62%
decrease of serum levels of PSCK9 (PCSK9; day 6): 69%
decrease of serum levels of PSCK9 (PCSK9; day 10): 65%
decrease of serum levels of PSCK9 (PCSK9; day 14): 65%
decrease of serum levels of PSCK9 (PCSK9; day 20): 60%
CAS9 protein expression (Swiss mice): No significant increase
reduction of EGFP-positive cells ([9]; EGFP-JURKAT): 81%
reduction of number of EGFP-expressing cells ([9]; HEK, 1 nM CAS9:gRNA): 62%
decrease in EGFP expression ([9]; HEK): 86%
reduction of EGFP-expressing cells / loss of EGFP expression ([9]; JURKAT, 1 nM CAS9:gRNA): 51%
reduction of number of EGFP-expressing cells ([9]; U2OS, 1 nM CAS9:gRNA): 57%
decrease in EGFP expression ([9]; U2OS): 87%
Mean indel Frequency ± s.e.m ([10]; JURKAT, CAS9/sgRNA 2.5 μg/5 μg): 70 ± 5%
Mean indel Frequency ± s.e.m ([10]; JURKAT, CAS9/sgRNA 5 μg/10 μg): 72%
Mean indel Frequency ± s.e.m ([10]; JURKAT, CAS9/sgRNA 5 μg/10 μg, listed as ADGN400a): 72 ± 2%
Mean indel Frequency ± s.e.m ([10]; K562, CAS9/sgRNA 2.5 μg/5 μg): 68 ± 2%
Mean indel Frequency ± s.e.m ([10]; K562, CAS9/sgRNA 5 μg/10 μg): 71%
Mean indel Frequency ± s.e.m ([10]; K562, CAS9/sgRNA 5 μg/10 μg, listed as ADGN400a): 71 ± 5%
mean indel frequencies [11]: about 30%
